Values joined by “and” are separate entries in the source; they are usually repeats but may differ in a detail not shown here. Identical values can stand only once. Like-named read-outs stand apart in the source and are kept apart here. Positions of bridges follow the written chain, without caps; N, C: chain ends. Residues, ends and D or L forms follow the SMILES beside them.
Key:
hNaV1.7 = type: cell-based, human
hNaV1.8 = experiment: Persistent current, CHO-hNaV1.8/β3; type: cell-based, human; conditions: ExTxA 1 µM
[1] = test system: total NaV current in Tmem233Cre/Cre DRG neurons; experiment: Persistent NaV current, Tmem233Cre/Cre DRG neurons; type: cell-based, mouse
[2] = test system: Tmem233Cre/Cre knockout mice; experiment: Nocifensive behaviors after intraplantar injection, Tmem233Cre/Cre mice; type: in vivo, mouse
Protocol: Nocifensive responses to intraplantar administration of ExTxA (5–10 nM) were assessed as previously described. In brief, ExTxA was diluted in sterile saline/0.1% BSA and administered by an intraplantar injection (40 μL) into a single hind paw of Tmem233^Cre/Cre, NaV1.7^Advill and wild-type littermate controls. Pain behaviors, consisting of paw licks or flinches, were counted from video recordings by a blinded investigator for up to 60 min following injection.

NaV1.7/TMEM233 [3] = target: T1, NaV1.7/TMEM233 (Homo sapiens, UniProt B4DJY2+Q15858); type: cell-based
Protocol: Current-voltage (IV) curves were determined in HEK-NaV1.7 cells, in the absence and presence of TMEM233, from a series of step pulses (500 ms) ranging from −110 to +55 mV (5 mV increments, repetition interval 5 s) before and after incubation with ExTxA (1 μM) from a holding potential of −90 mV. Currents were converted to conductance (G) using G = I/(V − Vrev), with Vrev being the reversal potential, plotted against voltage and fitted with a Boltzmann equation to obtain GV (conductance-voltage) curves. Voltage dependence of steady-state fast inactivation was determined by a subsequent 10 ms pulse to −20 mV immediately following the 500 ms depolarization step detailed above to assess the available non-inactivated channels.

NaV1.7/TMEM233 [4] = target: T1, NaV1.7/TMEM233; experiment: Ramp currents with ExTxA, HEK293 NaV1.7/TMEM233; type: cell-based
NaV1.7/TRARG1 = NaV1.7/TRARG1 (Homo sapiens, UniProt Q15858+Q8IXB3); type: cell-based
Chain of NaV1.7/TRARG1 (Q07699 19-218): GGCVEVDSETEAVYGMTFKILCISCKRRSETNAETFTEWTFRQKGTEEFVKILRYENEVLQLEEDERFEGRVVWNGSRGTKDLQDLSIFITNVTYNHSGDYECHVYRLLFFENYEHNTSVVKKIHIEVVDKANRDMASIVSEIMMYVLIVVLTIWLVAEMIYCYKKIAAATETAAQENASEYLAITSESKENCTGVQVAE
Chain of NaV1.7/TRARG1 (Q15858 whole entry): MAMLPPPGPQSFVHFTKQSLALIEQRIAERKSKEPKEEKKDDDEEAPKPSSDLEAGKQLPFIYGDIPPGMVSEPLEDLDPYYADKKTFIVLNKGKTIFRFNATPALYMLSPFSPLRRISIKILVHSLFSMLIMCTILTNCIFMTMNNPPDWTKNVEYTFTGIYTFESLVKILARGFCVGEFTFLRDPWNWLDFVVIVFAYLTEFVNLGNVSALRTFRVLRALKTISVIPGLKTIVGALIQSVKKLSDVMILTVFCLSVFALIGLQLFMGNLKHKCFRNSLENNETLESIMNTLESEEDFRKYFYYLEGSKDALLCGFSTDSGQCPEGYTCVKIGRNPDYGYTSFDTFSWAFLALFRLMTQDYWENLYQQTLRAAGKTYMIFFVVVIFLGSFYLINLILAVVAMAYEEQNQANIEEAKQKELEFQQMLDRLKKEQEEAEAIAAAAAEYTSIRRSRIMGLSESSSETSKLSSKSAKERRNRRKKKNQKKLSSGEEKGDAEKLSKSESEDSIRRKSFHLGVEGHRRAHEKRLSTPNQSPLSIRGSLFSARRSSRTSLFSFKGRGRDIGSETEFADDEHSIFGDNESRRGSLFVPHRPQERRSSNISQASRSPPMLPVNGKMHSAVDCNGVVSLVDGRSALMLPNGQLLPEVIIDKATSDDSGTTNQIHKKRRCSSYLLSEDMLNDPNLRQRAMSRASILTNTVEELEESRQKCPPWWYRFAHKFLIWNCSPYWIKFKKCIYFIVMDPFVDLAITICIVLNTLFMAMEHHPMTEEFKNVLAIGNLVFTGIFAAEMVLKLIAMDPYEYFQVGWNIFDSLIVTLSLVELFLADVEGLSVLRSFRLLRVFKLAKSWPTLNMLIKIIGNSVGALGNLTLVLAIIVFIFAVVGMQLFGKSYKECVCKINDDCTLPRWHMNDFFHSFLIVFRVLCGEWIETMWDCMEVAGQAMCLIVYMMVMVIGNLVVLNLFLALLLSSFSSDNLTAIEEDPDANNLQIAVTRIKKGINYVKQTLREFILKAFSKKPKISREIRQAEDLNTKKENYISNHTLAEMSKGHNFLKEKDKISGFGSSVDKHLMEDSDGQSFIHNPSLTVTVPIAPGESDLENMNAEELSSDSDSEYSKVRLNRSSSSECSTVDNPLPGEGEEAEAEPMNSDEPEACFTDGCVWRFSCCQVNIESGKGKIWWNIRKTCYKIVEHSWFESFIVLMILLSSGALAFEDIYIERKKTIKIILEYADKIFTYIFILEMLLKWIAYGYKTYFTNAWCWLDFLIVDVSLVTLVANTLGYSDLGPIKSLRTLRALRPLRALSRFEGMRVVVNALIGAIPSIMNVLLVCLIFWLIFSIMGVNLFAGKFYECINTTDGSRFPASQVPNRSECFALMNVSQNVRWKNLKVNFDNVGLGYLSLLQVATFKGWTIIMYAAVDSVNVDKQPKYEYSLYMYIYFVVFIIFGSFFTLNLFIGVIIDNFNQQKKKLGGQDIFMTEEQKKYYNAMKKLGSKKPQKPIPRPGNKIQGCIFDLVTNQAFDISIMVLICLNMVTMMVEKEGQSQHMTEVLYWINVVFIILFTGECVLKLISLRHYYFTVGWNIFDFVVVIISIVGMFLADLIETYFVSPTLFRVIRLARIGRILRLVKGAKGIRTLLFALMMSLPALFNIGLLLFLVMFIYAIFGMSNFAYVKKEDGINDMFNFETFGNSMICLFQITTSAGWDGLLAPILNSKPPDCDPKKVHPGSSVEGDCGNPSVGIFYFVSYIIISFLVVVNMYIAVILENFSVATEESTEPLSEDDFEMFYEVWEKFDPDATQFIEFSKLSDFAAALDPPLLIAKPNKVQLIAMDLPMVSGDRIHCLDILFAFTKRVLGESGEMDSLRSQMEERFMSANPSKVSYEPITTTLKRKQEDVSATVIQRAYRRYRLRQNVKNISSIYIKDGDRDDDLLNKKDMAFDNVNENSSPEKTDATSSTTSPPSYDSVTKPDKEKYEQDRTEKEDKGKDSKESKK
Chain of NaV1.7/TRARG1 (Q8IXB3 whole entry): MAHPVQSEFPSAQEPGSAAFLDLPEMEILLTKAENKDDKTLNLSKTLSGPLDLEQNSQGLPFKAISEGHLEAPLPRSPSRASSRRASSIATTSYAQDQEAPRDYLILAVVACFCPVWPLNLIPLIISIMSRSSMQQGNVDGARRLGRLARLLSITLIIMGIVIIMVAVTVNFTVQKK

hNaV1.7/TMEM233 = experiment: Persistent current, Xenopus oocytes hNaV1.7/TMEM233; type: cell-based, human
Protocol: Human NaV1.7 and TMEM233 genes cloned into pcDNA3.1 plasmid were linearized with NotI restriction enzyme and used as template for cRNA synthesis using T7 polymerase (mMessage mMachine Kit; Life Technologies). Stage V/VI oocytes were injected with 5–20 ng total RNA, then incubated at 17 °C for 1–3 days in 50% Leibovitz’s L-15 medium (Gibco), supplemented with 25 µg/mL gentamicin, 25 µg/mL streptomycin, and 2.5% fetal horse serum. Two-electrode voltage clamp (Axoclamp 900 A amplifier; Axon Instruments) were performed at room temperature in ND96 solution (in mM: 96 NaCl, 2 KCl, 1 MgCl2, 1.8 CaCl2, 5 HEPES; pH 7.4 with NaOH) with a ∼40 μL recording chamber. In experiments where ExTxA was added, solutions were supplemented with 0.05% fatty-acid free bovine serum albumin. Borosilicate glass microelectrodes had resistances of 0.2–0.8 MΩ when backfilled with 3 M KCl. Data were digitized at 20 kHz and filtered at 2 kHz using pCLAMP 11 software (Digidata 1550B; Axon Instruments).
ExTxA activity was assayed at 1 µM, analyzing the current from a 50 ms step to −10 mV every 10 s, from a holding volage of −80 mV. For all other voltage protocols, oocytes were held at −90 mV. Activation curves were obtained by measuring peak currents during steps from −100 mV to +60 mV in +10 mV increments applied every 10 s, with G/Gmax plot between −80 mV and +10 mV. Steady-state inactivation curves plot the peak current at a test pulse of −10 mV, after a 200 ms pre-pulse from −100 mV to +40 mV in +10 mV increments applied every 10 s. Slow inactivation curves plot the peak current at a test pulse of −10 mV, after a 10 s pre-pulse from −110 mV to −10 mV in +10 mV increments applied every 20 s. To determine recovery from inactivation, oocytes were first stepped to −10 mV, then rested at −90 mV for a variable time interval indicated in the graph, then a second −10 mV depolarization applied to determine the fraction of channls recovered. This protocol was applied every 13 s (time between each initial −10 mV step).

Cos-1 cells = experiment: Currents in untransfected Cos-1 cells; type: cell-based; conditions: ExTxA 1 µM, mean ± SEM, n = 6
Protocol: Whole-cell patch clamp experiments involving HEK293, COS-1, CHO, ND7/23, F11, SH-SY5Y and TE-671 cells were performed on a QPatch II automated electrophysiology platform (Sophion Bioscience, Ballerup, Denmark) as previously described. Cells at approximately 70–80% confluency were harvested from T75 flasks using TrypLE Express at 37 °C for 2–5 min and resuspended in DMEM with 25 mM HEPES (Sigma-Aldrich, NSW, Australia), 100 U/mL Penicillin-Streptomycin (Gibco) and 40 µg/mL trypsin inhibitor from Glycine max (soybean) (Sigma Aldrich) prior to recovery on a QStirrer (Sophion) for 30 min. 16-channel patch plates with a patch hole diameter of 1 μm and resistance of 2 ± 0.02 MΩ were used. Cell positioning and sealing parameters were as follows: positioning pressure −60 mbar, minimum seal resistance 0.1 GΩ, holding potential −100 mV, holding pressure −20 mbar. Whole-cell currents were filtered at 5 kHz and acquired at 25 kHz. Series resistance compensation was used and set to 70%.

TE-671 cells = conditions: ExTxA 1 µM + veratridine 5 µM + ouabain 20 nM
[5] = individual cells, paired with buffer

Q: Which results are given for `CC[C@H](C)[C@@H]1NC(=O)[C@H](CCCNC(=N)N)NC(=O)[C@H](Cc2ccccc2)NC(=O)[C@H](CC(C)C)NC(=O)[C@H](CO)NC(=O)[C@@H]2CSSC[C@@H]3NC(=O)[C@H]([C@@H](C)O)NC(=O)[C@H](CSSC[C@H](NC(=O)[C@H](CCCNC(=N)N)NC(=O)[C@@H]4CCCN4C(=O)[C@@H](N)CC(C)C)C(=O)N[C@@H](CC(=O)O)C(=O)N[C@@H](CO)C(=O)N4CCC[C@H]4C(=O)N[C@@H](Cc4ccccc4)C(=O)N2)NC(=O)[C@H](CCCCN)NC(=O)[C@H](CC(=O)O)NC(=O)CNC(=O)[C@H](CSSC[C@@H](C(=O)N[C@H](C(=O)N2CCC[C@H]2C(=O)N[C@@H](CC(=O)O)C(=O)N[C@H](C(=O)O)C(C)C)C(C)C)NC(=O)[C@H](CC(C)C)NC(=O)CNC(=O)[C@H](Cc2ccccc2)NC(=O)[C@H]([C@@H](C)CC)NC(=O)[C@@H]2CCCN2C(=O)[C@H](CC(C)C)NC(=O)[C@@H]2CCCN2C(=O)[C@H](C(C)C)NC3=O)NC(=O)[C@H](CC(C)C)NC(=O)CNC1=O` [ExTxA, excelsatoxin A] (H-LPRCDSPFCSLFRIGLCGDKCTCVPLPIFGLCVPDV-OH; disulfide 4-21, 9-23, 17-32)?
A: persistent current, Predicted (LS) mean diff. (hNaV1.7): -0.04169; persistent current (I40 ms/Ipeak) (hNaV1.7; ExTxA 100 nM in ECS, mean ± SEM, n = 10): 0.04 ± 0.014; persistent current (I40 ms/Ipeak) (hNaV1.7; ExTxA 100 nM in ICS, mean ± SEM, n = 10): -0.002 ± 0.004; persistent current (hNaV1.7; ExTxA 1 µM, HEK NaV1.7/β1, individual cells): -10.167 pA and -21.3045 pA and 17.0051 pA and 11.4493 pA and -20.8771 pA and -5.293 pA and -9.443 pA and -10.0671 pA and 5.003 pA and -11.1496 pA and -2.37 pA; persistent current (I40 ms/Ipeak) (hNaV1.7; ExTxA 1 µM, individual cells): -0.00096 and -0.00393 and -0.00509 and -0.00016 and 0.00507 and -0.00078 and -0.00158 and -0.00022 and -9.8e-6 and 0.000228 and 0.002683; persistent current (I40 ms/Ipeak) (hNaV1.8; individual cells): 0.04156 and 0.003935 and 0.01946 and 0.03094 and 0.03913 and 0.02554; Δ persistent current (I40 ms/Ipeak; buffer cf. ExTxA) (hNaV1.8; mean): 0.027 ± 0.0057 and 0.02676; persistent current, Mean diff, A2 - B2 [1]: 0.4591; ExTxA-induced persistent current (I40ms/Ipeak; nA) in DRG neurons ([1]; ExTxA 30 nM, Tmem233Cre KO, mean ± SEM, n = 7): 0.114 ± 0.04; nocifensive behaviors, 0-40 min combined (Fig. 3g) ([2]; TMEMCre KO, 0-40 min, individual animals, one line each (n = 16)): 8 and 6 and 329 and 151 and 352 and 36 and 124 and 41 and 45 and 71 and 136 and 66 and 142 and 96; nocifensive behaviors, 0-40 min combined, mean (Fig. 3g) ([2]; TMEMCre KO, 0-40 min, mean, n = 16): 115.9; ExTxA-induced pain behaviours (cumulative paw licks and flinches over 40 min) ([2]; i.pl. ExTxA 10 nM, Tmem233Cre KO, mean ± SEM, n = 16): 115.9 ± 25.3; ExTxA-induced nocifensive behaviors in Tmem233Cre/Cre KO mice ([2]; mouse, in vivo): significantly reduced; nocifensive behaviors, 0-40 min combined, difference between means (B - A) ± SEM (Fig. 3g) ([2]; mouse, in vivo): -118.4 ± 37.67; depolarizing shift in the voltage-dependence of fast inactivation (NaV1.7/TMEM233 [3]): 18.0 mV; hyperpolarizing shift in the voltage-dependence of activation (NaV1.7/TMEM233 [3]): 11.6 mV; V50 of Activation (NaV1.7/TMEM233 [3]; ExTxA 1 µM, NaV1.7/TMEM233, mean ± SEM, n = 7, control -24.31 ± 1.11): -35.92 ± 1.00 mV; V50 of Inactivation (NaV1.7/TMEM233 [3]; ExTxA 1 µM, NaV1.7/TMEM233, mean ± SEM, n = 8, control -67.77 ± 1.12): -49.80 ± 3.20 mV; V50 of Activation, mean of differences (B - A) (NaV1.7/TMEM233 [3]; ExTxA vs. buffer, paired t test, 7 pairs): -11.61; V50 of Inactivation, mean of differences (B - A) (NaV1.7/TMEM233 [3]; ExTxA vs. buffer, paired t test, 8 pairs): 17.97; V50 of Activation (NaV1.7/TMEM233 [3]; [5]): -34.91 and -38.74 and -38.17 and -35.28 and -37.07 and -36.44 and -30.84; V50 of Inactivation (NaV1.7/TMEM233 [3]; [5]): -45.67 and -44.27 and -43.05 and -47.34 and -66.38 and -46.52 and -43.25 and -61.92; Ramp current (0.2 mV/s) (NaV1.7/TMEM233 [4]): -1.952 ± 0.950 nA; Ramp current (NaV1.7/TMEM233 [4]; NaV1.7-TMEM233 + ExTxA (100 nM), individual cells): -2.267 and -0.5155 and -0.3095 and -7.0521 and -0.7027 and -0.3607 and -2.095 and -0.6283; currents induced by slow voltage-ramps (NaV1.7/TMEM233 [4]; extracellular ExTxA): an increase of currents induced by slow voltage-ramps; LogEC50 (NaV1.7/TRARG1; Nav1.7/TRARG1, 95% CI -6.511 to -5.182, Fig 4g): -5.623; HillSlope (NaV1.7/TRARG1; Nav1.7/TRARG1, Fig 4g): 0.6926; Top (NaV1.7/TRARG1; Nav1.7/TRARG1, best-fit, constraint Top < 1, Fig 4g): 1; ExTxA-induced currents with TRARG1 (NaV1.7/TRARG1; co-expression with NaV1.7): resulted in ExTxA-induced persistent currents; Xenopus oocyte persistent current (I40 ms/Ipeak) (hNaV1.7/TMEM233): 0.727 ± 0.020; Nav:TMEM, 1:1 molar, mean (persistent current) (hNaV1.7/TMEM233; Supplementary Fig 1f, 1 uM, toxin not named, mean of n = 6, Control mean 0.0806, n = 6): 0.727; Nav:TMEM, 1:1 molar, individual values (persistent current) (hNaV1.7/TMEM233; Supplementary Fig 1f, 1 uM, toxin not named, single replicates): 0.6869 and 0.7919 and 0.702 and 0.7846 and 0.7038 and 0.6927; Nav:TMEM, 1:1 molar, difference between means (1 uM - Control) ± SEM (hNaV1.7/TMEM233; Supplementary Fig 1f, unpaired t test P <0.0001, 95% CI 0.5949 to 0.6979): 0.6464 ± 0.0231; ExTxA-induced persistent current (Cos-1 cells): -2.019 ± 5.908 pA; effect of gene knockdown on ExTxA cytotoxicity (TE-671 cells): prevented by the knockdown of SCN9A (the gene encoding the NaV1.7 α subunit) as well as ten other genes (RNF121, GPAA1, PIGT, CRELD1, PIGK, STT3B, TMEM233, PIGS, MMGT1, and LMAN2L), and exacerbated by knockdown of SPAG5, TMEM161B and NEDD4L
